According to patent US8623865B2, “Acylpiperazinones and their use as pharmaceuticals” (Fab Parma S.A.S, priority 2009, dated 2014):
≈ marks a conversion by molar mass, not a printed value. Where “and” joins values, the source holds several entries; their conditions need not be identical. Identical values can stand only once. Like-named read-outs stand apart in the source and are kept apart here. Blank lines part the entries; values can stand above or below the molecule they belong to.

Experiments:
MRSA (IHMA #510059) = assay: MIC, broth microdilution (susceptibility method), MRSA; format: cell-based; conditions: Staphylococcus aureus, read-out: MIC MRSA (IHMA #510059)
Protocol: (§1) Antibacterial activity was determined on MSSA CIP 54.146 provided by the Centre de Ressources Biologiques de l'Institut Pasteur. Antibacterial activity was also determined on MRSA (IHMA #510059) and MSSA (IHMA #555189).
(§2) Minimum inhibitory concentrations (MICs) were determined by broth microdilution according to CLSI guidelines (CLSI, M100-20^1, M7-A8^2, M27-A3^3). The compounds were tested in the range from […]. Colonies were taken directly from a second-pass culture plate and prepared to a suspension equivalent to the 0.5 McFarland standard using normal saline. […] The panels were incubated at 35° C. for 16 to 20 hours before reading the MIC endpoints. The compounds of Examples 4 to 8 were dissolved in DMSO to make the initial solutions of 5120 μg/ml. These solutions were diluted 1:10 in sterile water to a stock solution of 512 μg/ml. The stock solutions were further diluted into the appropriate broth medium for the sequential dilutions used in the broth microdilution panels. S. pneumoniae was tested in Mueller Hinton (MH) broth with 3% lysed horse blood and C. albicans was tested in RPMI-1640 medium. All other organisms were tested in MH broth.

MSSA (IHMA #555189) = assay: MIC, broth microdilution (susceptibility method), MSSA; format: cell-based; conditions: Staphylococcus aureus, read-out: MIC MSSA (IHMA #555189)
Protocol: as §1, §2

[1] = biological target: recombinant S. aureus FabI enzyme (Staphylococcus aureus (strain MRSA252), UniProt Q6GI75); assay: In vitro inhibition of recombinant S. aureus FabI enzyme (fluorescence based assay); format: biochemical; conditions: 60 min pre-incubation
Protocol: Compound inhibitory activity of FabI enzyme is measured in vitro by the IC50 determination using a fluorescence based assay.
The protein FabI from S. aureus is prepared and purified using standard methods for recombinant protein expression after cloning of the gene in a prokaryotic expression vector.
The biochemical activity of the FabI enzyme is assessed using the following method.
The assay buffer “AB” contained 50 mM ADA (N-(2-acetamido)iminodiacetic acid monosodium salt) pH 6.5, 1 mM dithiothreitol, 0.006% Triton-X100 and 50 mM NaCl. The following components are added in a white polystyrene Costar plate (Ref 3912) up to a final volume of 55.5 μL: 1.5 μL DMSO or inhibitor dissolved in DMSO and 54 μL of a FabI/NADPH/NADP+ mixture in AB. After 60 min of pre-incubation at room temperature, the reaction is started by addition of 5 μL of trans-2-octenoyl N-acetylcysteamine thioester (t-o-NAC) to a final volume of 60.5 μL. This reaction mixture is then composed of 2 nM FabI, 40 μM NADPH (Sigma, N7505), 10 μM NADP+ (Sigma, N5755), 100 μM t-O-NAC and compound at defined concentration. Fluorescence intensity of NADPH (λex=360 nm, λem=520 nm) is measured immediately after t-O-NAC addition (T0), and approximately 50 min later (T50) by a Fluostar Optima (BMG) so as to achieve ±30% of NADPH conversion. Enzyme activity is calculated by first subtracting TO signal to T50 and then subtracting background signal (FabI=0). Percentages of inhibition are calculated against untreated samples (Inhibitor=0) and IC50 are fitted to a classical Langmuir equilibrium model using XLFIT (IDBS).

[2] = system: S. aureus CIP 54.146 (MSSA); assay: MIC, broth microdilution, S. aureus CIP 54.146 (with and without 80% human serum); format: cell-based; conditions: Staphylococcus aureus
Protocol: The compounds of the invention are useful antibacterial agents having a selective spectrum of activity in vitro against bacterial strains relying on FabI and related targets. […] The activity is presented as Minimum Inhibitory Concentration (MIC) expressed in μg/ml and was determined using broth microdilution or Agar dilution methods.
as §1
This protocol is compliant with Clinical Laboratory Standards Institute (CLSI) methodology as described in M7-A7 document of the CLSI. The compound to be tested is diluted according to a geometric series of reason 2 in pure DMSO. Dilutions are transferred in sterile polystyrene microplates, followed by mid-log phase bacteria in cation-adjusted Muller-Hinton broth (ca-MHB, Fluka, Reference 90922) with a final inoculum of 5×10^5 cfu/ml. Microplates are incubated overnight at 35° C. MIC is defined as the lowest concentration of antimicrobial agent that completely prevents visible bacterial growth. All manipulations, but compound handling (in pure DMSO), are performed under sterile conditions. The final concentration of DMSO in the plates is 2%.
In order to evaluate the serum binding of test compounds, MICs were also measured in ca-MHB supplemented with 80% human serum (HS, Sigma, Reference H4522).

[3] = system: methicillin susceptible Staphylococcus aureus strain ATCC 29213; assay: In vivo protection assay, S. aureus infection of neutropenic mice (survival); parameters: species or system Swiss mice; conditions: 48 h
[4] = rats, intravenous; cited from earlier work
E. coli (ATCC 25922) = assay: MIC, broth microdilution (susceptibility method), E. coli; format: cell-based; conditions: Escherichia coli, ATCC25922, MH broth
Protocol: as §2

E. faecalis (ATCC 29212) = assay: MIC, broth microdilution (susceptibility method), E. faecalis; format: cell-based; conditions: Enterococcus faecalis, ATCC29212, MH broth
Protocol: as §2

[5] = system: S. pneumoniae (ATCC 49619); assay: MIC, broth microdilution (susceptibility method), S. pneumoniae; format: cell-based; conditions: Streptococcus pneumoniae, ATCC49619, MH broth with 3% lysed horse blood
Protocol: as §2

C. albicans (ATCC 90028) = assay: MIC, broth microdilution (susceptibility method), C. albicans; format: cell-based; conditions: Candida albicans, ATCC90028, RPMI-1640 medium
Protocol: as §2

HSA = HSA (Homo sapiens (Human), UniProt P02768); assay: HSA binding analysis using a chiral HSA column; format: in vitro ADME
Protocol: The test system used in this analysis was an HSA chiral column.
A 10 mM stock solution of Example 7 (molecular weight of 475.49 and HPLC purity 86.3%) was prepared by dissolving 1.8 mg of a compound of Example 7 in 0.327 ml of DMSO. The compound of Example 7 at a concentration of 100 μM was prepared by diluting the stock solution at 10 mM in DMSO with Potassium phosphate buffer pH 7.0.
The relationship between the retention time (Tr) and percentage of protein binding (PB %) depended on the dead time (T0) and the capacity factor (k′): PB %=[k′/(k′+1)]*100 • where k′=(Tr−T0)/T0 Results

[6] = ca-MHB supplemented with 80% human serum, read-out: MIC S. aureus CIP 54.146 in the presence of 80% human serum
[7] = ca-MHB, read-out: MIC S. aureus CIP 54.146

Sequence of HSA (P02768 25-609): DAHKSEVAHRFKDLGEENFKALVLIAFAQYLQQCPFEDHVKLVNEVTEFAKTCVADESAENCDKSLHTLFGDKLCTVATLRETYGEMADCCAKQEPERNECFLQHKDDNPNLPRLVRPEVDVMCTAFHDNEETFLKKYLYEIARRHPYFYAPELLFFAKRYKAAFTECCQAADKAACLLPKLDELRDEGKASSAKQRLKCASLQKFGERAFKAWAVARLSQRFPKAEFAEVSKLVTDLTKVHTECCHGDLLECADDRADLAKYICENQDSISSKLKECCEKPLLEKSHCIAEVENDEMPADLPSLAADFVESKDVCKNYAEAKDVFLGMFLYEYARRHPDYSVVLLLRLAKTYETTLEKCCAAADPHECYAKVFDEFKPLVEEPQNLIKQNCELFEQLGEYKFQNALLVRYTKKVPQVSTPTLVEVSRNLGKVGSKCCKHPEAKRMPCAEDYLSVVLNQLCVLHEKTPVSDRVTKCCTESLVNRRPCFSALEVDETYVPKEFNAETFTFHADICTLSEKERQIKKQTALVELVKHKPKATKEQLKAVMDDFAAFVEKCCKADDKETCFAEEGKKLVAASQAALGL

MIC (MRSA (IHMA #510059); broth microdilution, MH broth): 1 µg/mL (≈ 2.56 µM)
MIC (MSSA (IHMA #555189); broth microdilution, MH broth): 0.06 µg/mL (≈ 0.154 µM)
Compound: CCc1cc(O)c(Oc2ccc(C(=O)N3CCNC(=O)C3C)cc2F)cc1F (centres unmarked) [Example 8, 4-[4-(4-Ethyl-5-fluoro-2-hydroxyphenoxy)-3-fluorobenzoyl]-3-methyl piperazin-2-one]

Compound: CCc1cc(O)c(Oc2ccc(C(=O)N3CCNC(=O)C3)cc2F)cc1F [Example 1, 4-[4-(4-Ethyl-5-fluoro-2-hydroxyphenoxy)-3-fluorobenzoyl]piperazin-2-one]
IC50 [1]: 16 nM
MIC [2, 6]: 0.5 µg/mL
MIC [2, 7]: 0.25 µg/mL (≈ 0.664 µM)
Protection of infected mice (survival rate) ([3]; single oral administration, 100 and 200 mg/kg): able to protect mice against bacterial dissemination
Protection of infected mice (survival rate) ([3]; single subcutaneous administration, 6.25 and 12.5 mg/kg): able to protect mice against bacterial dissemination

MIC (MRSA (IHMA #510059); broth microdilution, MH broth): 4 µg/mL (≈ 9.23 µM)
MIC (MSSA (IHMA #555189); broth microdilution, MH broth): 0.25 µg/mL (≈ 0.577 µM)
Compound: CCc1cc(O)c(Oc2ccc(C(=O)N3CCN(CC(N)=O)C(=O)C3)cc2F)cc1F [Example 6, 2-[4-(4-(4-Ethyl-5-fluoro-2-hydroxyphenoxy)-3-fluorobenzoyl]-2-oxopiperazin-1-yl)acetamide]

MIC (MRSA (IHMA #510059); broth microdilution, MH broth): 32 µg/mL (≈ 82 µM)
MIC (MSSA (IHMA #555189); broth microdilution, MH broth): 4 µg/mL (≈ 10.2 µM)
Compound: CCc1cc(O)c(Oc2ccc(C(=O)N3CC(=O)NC(=O)C3)cc2F)cc1F [Example 4, 4-[4-(4-Ethyl-5-fluoro-2-hydroxyphenoxy)-3-fluorobenzoyl]piperazine-2,6-dione]

Compound: Oc1cc(Cl)ccc1Oc1ccc(Cl)cc1Cl [Triclosan]
LD50 [4]: 29 mg/kg

Compound: CCc1cc(O)c(Oc2ccc(C(=O)N3CCN(CN4CCOCC4)C(=O)C3)cc2F)cc1F [Example 7, 4-[4-(4-Ethyl-5-fluoro-2-hydroxyphenoxy)-3-fluorobenzoyl]-1-(morpholinomethyl)piperazin-2-one]
MIC (MRSA (IHMA #510059)): 0.06 µg/mL (≈ 0.126 µM)
MIC (MSSA (IHMA #555189)): 0.06 µg/mL (≈ 0.126 µM)
MIC (E. coli (ATCC 25922)): 4 µg/mL (≈ 8.41 µM)
MIC (E. faecalis (ATCC 29212)): 64 µg/mL (≈ 135 µM)
MIC [5]: > 128 µg/mL
MIC (C. albicans (ATCC 90028)): > 128 µg/mL
Binding to HSA (in words) (HSA): moderate binding
HSA Binding (%) (HSA; 37° C., pH 7.0, 100 μM): 74.9%
C (average) (HSA; average of 3 tests): 0.75
k′ (average) (HSA; average of 3 tests): 2.987
k′ (capacity factor) (HSA; single test): 2.987 and 2.981 and 2.993

Compound: CCc1ccc(Oc2ccc(C(=O)N3CCNC(=O)C3)cc2F)c(O)c1 [Example 2, 4-[4-(4-Ethyl-2-hydroxyphenoxy)-3-fluorobenzoyl]piperazin-2-one]
IC50 [1]: 29 nM
MIC [2, 6]: 1 µg/mL
MIC [2, 7]: 1 µg/mL (≈ 2.79 µM)

Compound: CCOC(=O)Oc1cc(CC)c(F)cc1Oc1ccc(C(=O)N2CCNC(=O)C2)cc1F [Example 3, 4-Fluoro-2-{2-fluoro-4-[(3-oxopiperazin-1-yl)carbonyl]phenoxy}-5-ethylphenyl ethyl carbonate]
IC50 [1]: 5000 nM

MIC (MRSA (IHMA #510059); broth microdilution, MH broth): 1 µg/mL (≈ 2.56 µM)
MIC (MSSA (IHMA #555189); broth microdilution, MH broth): 0.015 µg/mL (≈ 0.0384 µM)
Compound: CCc1cc(O)c(Oc2ccc(C(=O)N3CCN(C)C(=O)C3)cc2F)cc1F [Example 5, 4-[4-(4-Ethyl-5-fluoro-2-hydroxyphenoxy)-3-fluorobenzoyl]-1-methylpiperazin-2-one]
